# According to ChEMBL document CHEMBL1201862, “PubChem BioAssay data set” (2004):
# Where “and” joins values, the source holds several entries; their conditions need not be identical. Equal entries are not always repeated. Calls of active or inactive are those of the source.
# What was measured:
# [1] = target: T1, Dual specificity protein phosphatase 3 (Homo sapiens, UniProt P51452); test: SAR VHR1 absorbance Assay for In Vitro dose response studies. [Related pubchem assays (depositor defined):AID1654, AID1661, AID1878, AID1992, AID2004]
# [2] = target: T1, Dual specificity protein phosphatase 3; test: SAR VHR1 Fluorescent Assay for In Vitro dose response studies. [Related pubchem assays (depositor defined):AID1654, AID1661, AID1878, AID1992, AID2004, AID2070, AID2085]; type: functional
# [3] = target: Glucose-6-phosphate 1-dehydrogenase (Homo sapiens, UniProt P11413); test: inhibition of Homo sapiens G6PD, dose series – biochemical, fluorescence, selectivity assay for P. falciparum G6PD inhibitor project, dose response (AID 504792); type: functional
# [4] = target: T2, Rac GTPase-activating protein 1 (Homo sapiens, UniProt Q9H0H5); test: blockers of MgcRacGAP-driven Rac1 GTP hydrolysis – biochemical, ADP Hunter fluorescence, primary and confirmatory, confirmation (AID 624330); type: functional
# T2 sequence (Q9H0H5 whole entry): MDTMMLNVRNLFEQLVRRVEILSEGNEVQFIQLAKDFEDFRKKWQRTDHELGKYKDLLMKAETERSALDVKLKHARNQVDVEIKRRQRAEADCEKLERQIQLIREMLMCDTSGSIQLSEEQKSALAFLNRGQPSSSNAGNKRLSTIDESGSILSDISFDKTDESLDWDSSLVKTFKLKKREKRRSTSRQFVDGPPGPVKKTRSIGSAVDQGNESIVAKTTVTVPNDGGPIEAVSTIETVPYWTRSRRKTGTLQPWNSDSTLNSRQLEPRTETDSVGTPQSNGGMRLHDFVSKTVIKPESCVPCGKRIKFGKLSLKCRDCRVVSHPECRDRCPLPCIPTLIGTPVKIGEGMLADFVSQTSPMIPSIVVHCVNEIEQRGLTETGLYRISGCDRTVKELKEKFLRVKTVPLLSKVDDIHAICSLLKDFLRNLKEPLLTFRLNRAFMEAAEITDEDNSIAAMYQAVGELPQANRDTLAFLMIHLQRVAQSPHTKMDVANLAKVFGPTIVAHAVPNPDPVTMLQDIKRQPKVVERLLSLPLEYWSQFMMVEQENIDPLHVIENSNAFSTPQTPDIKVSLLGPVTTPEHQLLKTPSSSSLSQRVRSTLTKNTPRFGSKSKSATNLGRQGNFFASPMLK
# [5] = target: T1, Dual specificity protein phosphatase 3; test: SAR VHR1 Fluorescent Assay for In Vitro dose response studies Set 2. [Related pubchem assays (depositor defined):AID1654, AID1661, AID1878]; type: functional
# [6] = target: T3, Tyrosine-protein phosphatase non-receptor type 7 (Homo sapiens, UniProt P35236); test: inhibition of hematopoietic tyrosine phosphatase HePTP – biochemical, set 2, SAR follow-up (AID 449736); type: functional
# T3 sequence (P35236 whole entry): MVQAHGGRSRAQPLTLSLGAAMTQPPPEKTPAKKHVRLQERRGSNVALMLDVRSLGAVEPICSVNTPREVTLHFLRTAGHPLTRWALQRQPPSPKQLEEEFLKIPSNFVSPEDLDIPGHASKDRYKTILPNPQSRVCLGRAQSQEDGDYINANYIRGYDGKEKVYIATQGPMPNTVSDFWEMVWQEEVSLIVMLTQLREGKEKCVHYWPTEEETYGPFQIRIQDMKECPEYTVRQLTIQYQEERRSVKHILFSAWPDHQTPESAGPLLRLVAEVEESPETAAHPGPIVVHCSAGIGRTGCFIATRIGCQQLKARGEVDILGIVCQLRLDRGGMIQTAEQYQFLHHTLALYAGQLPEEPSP
# [7] = target: T4, Dual specificity protein phosphatase 6 (Rattus norvegicus, UniProt Q64346); test: SAR analysis of inhibitors of MKP-3 - Set 2. [Related pubchem assays (depositor defined):AID1055, AID1661, AID425, AID553, AID566]; type: functional
# T4 sequence (Q64346 whole entry): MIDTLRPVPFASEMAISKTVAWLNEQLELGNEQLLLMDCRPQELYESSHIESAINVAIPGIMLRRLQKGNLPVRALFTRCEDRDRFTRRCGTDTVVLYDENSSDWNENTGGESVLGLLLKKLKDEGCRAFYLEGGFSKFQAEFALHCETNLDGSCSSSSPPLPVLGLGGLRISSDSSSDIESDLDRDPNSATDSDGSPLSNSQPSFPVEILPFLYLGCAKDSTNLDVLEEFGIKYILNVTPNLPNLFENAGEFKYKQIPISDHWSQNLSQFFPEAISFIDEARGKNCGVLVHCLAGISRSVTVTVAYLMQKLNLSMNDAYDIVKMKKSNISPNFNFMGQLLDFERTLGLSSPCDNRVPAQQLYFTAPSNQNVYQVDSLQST
# [8] = target: T3, Tyrosine-protein phosphatase non-receptor type 7; test: redox-active compounds inhibiting HePTP phosphatase – biochemical, fluorescence, mechanism study (AID 2068); type: functional
# [9] = target: T4, Dual specificity protein phosphatase 6; type: functional
# [10] = target: DNA dC->dU-editing enzyme APOBEC-3G (Homo sapiens, UniProt Q9HC16); test: Dose Response confirmation of small molecule APOBEC3G DNA Deaminase Inhibitors via a fluorescence-based single-stranded DNA deaminase assay. [Related pubchem assays (depositor defined):AID493012, AID493028]; type: functional
# [11] = target: T1, Dual specificity protein phosphatase 3; test: VHR1 phosphatase inhibitors, biochemical (AID 1878)
# [12] = target: T4, Dual specificity protein phosphatase 6; test: inhibition of rat DUSP6 enzyme activity – biochemical, in vitro, primary screen (AID 425)
# [13] = target: T1, Dual specificity protein phosphatase 3; test: VHR1 phosphatase inhibitors, primary screen, biochemical, absorbance, uHTS (AID 1654)
# [14] = target: T3, Tyrosine-protein phosphatase non-receptor type 7; test: SAR analysis of chemical inhibitors of HePTP using a Fluorescent assay - Set 2. [Related pubchem assays (depositor defined):AID1059, AID1077, AID1661, AID2085, AID521]; type: functional
# [15] = target: DNA dC->dU-editing enzyme APOBEC-3A (Homo sapiens, UniProt P31941); test: A3A deaminase inhibition for selectivity – biochemical, dose response (AID 504722); type: functional
# Jurkat [16] = test: blockers of NF-kB activation in T cells – Jurkat, luciferase reporter, luminescence, B- and T-cell, dose response (AID 489004); type: functional, cell-based; details: Homo sapiens;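 further: NF-kB luciferase reporter Jurkat cells stimulated with PMA plus ionomycin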
# [17] = HEK-293T viability loss, compound-treated – cell-based, uHTS hits, cytotoxicity control for B/T-cell NF-kB inhibitor project, dose response (AID 489019); type: functional;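 further: IC50 reflects cytotoxicity as loss of cell viability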
# [18] = target: T5, Carboxy-terminal domain RNA polymerase II polypeptide A small phosphatase 1 (Homo sapiens, UniProt Q9GZU7); test: CTDSP1 inhibitors, concentration-response, biochemical, absorbance readout, ultra-high-throughput screen actives (AID 540297); type: functional
# T5 sequence (Q9GZU7 whole entry): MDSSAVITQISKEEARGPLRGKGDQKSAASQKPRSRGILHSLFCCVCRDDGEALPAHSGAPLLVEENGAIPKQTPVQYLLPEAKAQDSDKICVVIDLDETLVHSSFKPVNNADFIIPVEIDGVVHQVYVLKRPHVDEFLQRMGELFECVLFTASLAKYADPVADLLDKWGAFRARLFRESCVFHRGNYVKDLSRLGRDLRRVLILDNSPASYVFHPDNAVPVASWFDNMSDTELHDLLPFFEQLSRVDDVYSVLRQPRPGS
# [19] = target: Beta-adrenergic receptor kinase 1 (Homo sapiens, UniProt P25098); test: blockers of aptamer binding to GRK2 – biochemical, flow cytometry beads, FAM-aptamer, powder set 1, dose response (AID 588720)
# Jurkat [20] = test: SAR Analysis of small molecule inhibitors of […] specific antigen receptor-induced NF-kB activation in a Jurkat cell line using a luminescence assay - Set 3. [Related pubchem assays (depositor defined):AID435022, AID435025, AID465]; type: functional, cell-based; details: Homo sapiens
# [21] = HEK-293T cell viability reduction – luminescence, B-cell screen hits, cytotoxicity control for BCR NF-kB inhibitor project, dose response (AID 489021); type: functional, cell-based;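 further: HEK-293T cells carrying an NF-kB luciferase reporter; cells exposed to compound for about 14 hours before viability readout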
# HEK293 [22] = test: SAR Analysis of small molecule inhibitors of B-cell specific antigen receptor-induced NF-kB activation in a HEK-293T cell line using a luminescence assay - Set 2. [Related pubchem assays (depositor defined):AID435022, AID435025, AID489021]; type: functional, cell-based; details: Homo sapiens
# HEK293 [23] = test: HEK293T cell viability loss, resazurin readout – resazurin fluorescence, cytotoxicity control for NF-kB activator project, SAR follow-up (AID 493251); type: functional, cell-based; details: Homo sapiens
# [24] = Luminescent dose response cell-based high throughput screening assay for inhibitors of the Janus kinase 2 mutant JAK2V617F. [Related pubchem assays: 1446 (Primary screen.), 1521 (Confirmation assay.), 1486 (Counter screen.)]; type: functional
# Paired box protein Pax-8 = Paired box protein Pax-8 (Homo sapiens, UniProt Q06710); test: PAX8 transcriptional activity inhibition in RMG-I – RMG-I cells, luciferase, cherry-pick, dose response (AID 687027); type: functional, cell-based;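 further: luciferase reporter driven by Pax8 target thyroperoxidase promoter measured by SteadyGlo luminescence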
# A-375 = test: MITF: Counter assay: A375 proliferation Measured in Cell-Based System Using Plate Reader - 2084-03_Inhibitor_Dose_DryPowder_Activity. [Related pubchem assays (depositor defined):AID488944]; type: functional; details: Homo sapiens
# [25] = target: T6, Microphthalmia-associated transcription factor (Homo sapiens, UniProt O75030); test: reducers of TRPM1 reporter luminescence, concentration series – cell-based, SK-MEL-5, cherry-picked, set 3, MITF inhibitor project, dose response (AID 493073); type: functional;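 further: SK-MEL-5 melanoma cells with luciferase driven by the MITF target TRPM1 promoter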
# T6 sequence (O75030 whole entry): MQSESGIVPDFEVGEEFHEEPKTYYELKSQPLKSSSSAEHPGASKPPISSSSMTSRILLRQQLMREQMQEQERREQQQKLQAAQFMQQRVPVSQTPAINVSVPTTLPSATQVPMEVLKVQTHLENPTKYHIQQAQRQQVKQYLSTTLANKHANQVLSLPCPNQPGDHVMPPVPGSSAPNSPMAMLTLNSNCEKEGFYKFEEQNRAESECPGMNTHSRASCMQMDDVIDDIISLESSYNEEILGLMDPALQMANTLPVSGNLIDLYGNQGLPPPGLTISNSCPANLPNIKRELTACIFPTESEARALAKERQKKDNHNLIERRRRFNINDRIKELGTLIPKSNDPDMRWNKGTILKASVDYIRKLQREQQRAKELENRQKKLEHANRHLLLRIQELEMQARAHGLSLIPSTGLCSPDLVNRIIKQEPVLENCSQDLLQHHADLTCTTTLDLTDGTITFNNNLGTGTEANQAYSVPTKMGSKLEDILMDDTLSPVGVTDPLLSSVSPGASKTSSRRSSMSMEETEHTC
# T1 sequence (P51452 whole entry): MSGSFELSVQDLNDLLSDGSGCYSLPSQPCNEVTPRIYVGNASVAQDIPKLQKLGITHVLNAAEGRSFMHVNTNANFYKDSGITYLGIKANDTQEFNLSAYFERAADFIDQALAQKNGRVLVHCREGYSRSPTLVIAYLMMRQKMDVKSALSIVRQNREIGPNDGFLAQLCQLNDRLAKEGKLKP
# Sequence of Paired box protein Pax-8 (Q06710 whole entry): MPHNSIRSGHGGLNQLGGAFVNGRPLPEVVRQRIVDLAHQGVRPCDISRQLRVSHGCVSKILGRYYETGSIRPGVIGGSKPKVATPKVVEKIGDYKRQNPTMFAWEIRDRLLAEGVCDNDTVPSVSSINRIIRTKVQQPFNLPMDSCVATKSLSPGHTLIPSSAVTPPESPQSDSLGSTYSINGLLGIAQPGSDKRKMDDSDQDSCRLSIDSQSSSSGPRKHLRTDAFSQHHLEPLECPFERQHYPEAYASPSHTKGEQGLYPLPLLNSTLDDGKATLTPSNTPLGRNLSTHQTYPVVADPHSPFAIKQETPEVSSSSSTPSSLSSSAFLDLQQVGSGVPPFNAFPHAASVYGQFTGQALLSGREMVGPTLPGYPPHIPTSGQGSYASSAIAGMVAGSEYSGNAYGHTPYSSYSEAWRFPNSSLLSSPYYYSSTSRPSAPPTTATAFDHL
# Sequence of DNA dC->dU-editing enzyme APOBEC-3A (P31941 whole entry): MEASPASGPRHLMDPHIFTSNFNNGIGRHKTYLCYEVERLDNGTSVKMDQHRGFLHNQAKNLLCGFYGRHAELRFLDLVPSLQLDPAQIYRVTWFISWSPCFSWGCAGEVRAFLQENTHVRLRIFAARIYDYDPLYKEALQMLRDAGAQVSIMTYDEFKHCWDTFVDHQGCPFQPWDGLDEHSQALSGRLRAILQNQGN
# Sequence of DNA dC->dU-editing enzyme APOBEC-3G (Q9HC16 whole entry): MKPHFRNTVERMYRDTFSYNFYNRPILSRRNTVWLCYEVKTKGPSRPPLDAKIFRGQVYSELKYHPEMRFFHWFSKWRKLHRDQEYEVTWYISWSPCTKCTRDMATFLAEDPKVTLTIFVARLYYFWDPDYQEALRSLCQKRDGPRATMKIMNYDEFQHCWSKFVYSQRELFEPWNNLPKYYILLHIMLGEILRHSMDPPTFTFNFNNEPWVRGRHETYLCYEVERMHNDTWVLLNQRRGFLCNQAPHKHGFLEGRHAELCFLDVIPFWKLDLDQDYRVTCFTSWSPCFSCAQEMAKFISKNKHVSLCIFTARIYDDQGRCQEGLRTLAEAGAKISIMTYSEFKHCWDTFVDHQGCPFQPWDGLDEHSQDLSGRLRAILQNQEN
# Sequence of Beta-adrenergic receptor kinase 1 (P25098 whole entry): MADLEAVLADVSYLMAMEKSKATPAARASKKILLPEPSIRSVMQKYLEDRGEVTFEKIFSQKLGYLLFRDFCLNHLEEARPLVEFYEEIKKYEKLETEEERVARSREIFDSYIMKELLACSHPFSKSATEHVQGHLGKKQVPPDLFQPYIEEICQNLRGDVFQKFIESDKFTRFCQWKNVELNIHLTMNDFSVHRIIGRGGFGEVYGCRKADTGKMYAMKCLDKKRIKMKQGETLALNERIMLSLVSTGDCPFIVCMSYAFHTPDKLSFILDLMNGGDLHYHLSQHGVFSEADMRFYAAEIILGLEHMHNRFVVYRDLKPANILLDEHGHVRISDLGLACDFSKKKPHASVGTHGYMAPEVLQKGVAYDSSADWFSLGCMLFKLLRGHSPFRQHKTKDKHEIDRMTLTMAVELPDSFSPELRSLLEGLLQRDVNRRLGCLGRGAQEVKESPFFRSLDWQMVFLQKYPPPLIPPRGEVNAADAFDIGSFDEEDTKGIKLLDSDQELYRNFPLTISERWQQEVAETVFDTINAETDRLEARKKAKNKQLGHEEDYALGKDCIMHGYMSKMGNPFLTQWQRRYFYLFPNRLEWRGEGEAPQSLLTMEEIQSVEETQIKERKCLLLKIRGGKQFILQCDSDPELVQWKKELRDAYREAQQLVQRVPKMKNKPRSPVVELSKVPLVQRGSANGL
# Sequence of Glucose-6-phosphate 1-dehydrogenase (P11413 whole entry): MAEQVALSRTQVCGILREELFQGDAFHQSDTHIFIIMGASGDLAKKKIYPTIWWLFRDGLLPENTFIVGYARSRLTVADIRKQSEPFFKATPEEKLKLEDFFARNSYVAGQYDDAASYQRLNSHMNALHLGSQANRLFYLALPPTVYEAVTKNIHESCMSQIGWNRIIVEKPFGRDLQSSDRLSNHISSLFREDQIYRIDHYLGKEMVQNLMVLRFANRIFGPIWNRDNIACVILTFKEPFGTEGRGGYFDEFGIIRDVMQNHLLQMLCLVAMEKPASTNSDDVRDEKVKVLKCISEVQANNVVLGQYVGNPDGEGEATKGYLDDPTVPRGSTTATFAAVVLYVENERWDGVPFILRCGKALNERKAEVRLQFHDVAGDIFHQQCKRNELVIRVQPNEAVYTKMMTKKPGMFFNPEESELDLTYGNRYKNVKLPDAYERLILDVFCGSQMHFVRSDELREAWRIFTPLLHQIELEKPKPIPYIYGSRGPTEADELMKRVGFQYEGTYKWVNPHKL
compound,measurement,setting,value
CN1CCN(C(=O)c2sc(=S)n(-c3ccccc3)c2N)CC1,IC50,[1],0.53 µM (active)
same,IC50,[2],> 99 µM (inactive)
same,IC50,[3],> 80 µM (inactive)
same,IC50,[4],191 µM (active)
same,IC50,[5],0.26 µM (active)
same,IC50,[6],1.14 µM (active) and > 100 µM (inactive) and 7.06 µM (active)
same,IC50,[7],> 100 µM (inactive)
same,IC50,[8],0.0586 µM (active)
same,IC50,[9],> 99 µM (inactive)
same,IC50,[10],5.51 µM (active)
same,IC50,[11],3.53 µM (active)
same,IC50,[12],> 158 µM (not active)
same,IC50,[13],1.27 µM (active)
same,IC50,[14],1.05 µM (active)
same,IC50,[15],> 100 µM (inactive)
Cn1nc(CC(=O)Nc2ccc3c(c2)CCC3)c2ccccc2c1=O,IC50,Jurkat [16],> 80 µM (inactive)
same,IC50,[17],> 80 µM (inactive)
O=C(CCS(=O)(=O)c1ccc(Br)cc1)Nc1ccc(Br)cc1F,IC50,[18],22 µM (active)
same,EC50,[19],21.2 µM (active)
CCCNC(=O)CSCc1nc(-c2ccc(SC)cc2)oc1C,IC50,Jurkat [20],> 80 µM (inactive)
same,IC50,[21],> 80 µM (inactive)
same,IC50,HEK293 [22],42.5 µM (inactive)
same,IC50,HEK293 [23],> 80 µM (inactive)
Cc1ccc2nc(C)cc(Nc3ccc([N+](=O)[O-])cc3)c2c1,IC50,[24],1.29 µM (active)
same,AC50,Paired box protein Pax-8,5.33 µM (active)
same,AC50,A-375,24.7 µM (active)
same,AC50,[25],5.88 µM (active)
